Experimental data from patent US6358885B1, “Substituted phenylheterocyclic herbicides” (Mississippi State University, priority 1992, dated 2002).

How the values were obtained:
[1] = tested on: ryegrass; test: Test C preemergence/postemergence greenhouse plant response rating 0 to 100; format: in vivo, Lolium multiflorum; conditions: for Plant response rating Ryegrass: 62 g/ha, 0 to 100 scale
Method in brief: (§1)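 Compounds in non-phytotoxic solvent went onto sandy loam before emergence (seeded one day earlier) or onto plants at the one-to-four leaf stage. Duck salad was treated via flood water (~2.5 cm, maintained) over silt loam.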

[2] = tested on: lambsquarters; test: as above; format: in vivo, Chenopodium album; conditions: POSTEMERGENCE
Method in brief: as §1

[3] = tested on: rape; test: as above; format: in vivo, Brassica napus; conditions: for Plant response rating, Rape: 62 g/ha, 0 to 100 scale
Method in brief: as §1

[4] = tested on: blackgrass; test: Test B preemergence/postemergence greenhouse plant response rating 0 to 10; format: in vivo, Alopecurus myosuroides; conditions: 0 to 10 scale
Method in brief: (§2)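 Test chemicals, dissolved in a non-phytotoxic solvent, were applied to soil at planting and, at the same time, over foliage of seedlings at the one to four leaf stage.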

[5] = tested on: wild buckwheat; test: as above; format: in vivo, Polygonum convolvulus; conditions: 0 to 10 scale
Method in brief: as §2

[6] = tested on: corn; test: Test C preemergence/postemergence greenhouse plant response rating 0 to 100; format: in vivo, Zea mays; conditions: for Plant response rating, Corn: 62 g/ha, 0 to 100 scale
Method in brief: as §1

[7] = tested on: cheatgrass; test: Test B preemergence/postemergence greenhouse plant response rating 0 to 10; format: in vivo, Bromus secalinus; conditions: 0 to 10 scale
Method in brief: as §2

[8] = tested on: barnyardgrass; test: Test C flood test plant response rating 0 to 100; format: in vivo, Echinochloa crus-galli
Method in brief: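 Compounds in non-phytotoxic solvent applied preemergence to sandy loam one day after planting, postemergence at the 1–4 leaf stage, or to ~2.5 cm floodwater over silt loam.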

[9] = tested on: rice; test: Test B preemergence/postemergence greenhouse plant response rating 0 to 10; format: in vivo, Oryza sativa; conditions: 0 to 10 scale
Method in brief: as §2

[10] = tested on: cocklebur; test: as above; format: in vivo, Xanthium pensylvanicum; conditions: 0 to 10 scale
Method in brief: as §2

[11] = tested on: duck salad; test: Test C flood test plant response rating 0 to 100; format: in vivo, Heteranthera limosa
Method in brief: as §1

[12] = tested on: sugar beet; test: Test C preemergence/postemergence greenhouse plant response rating 0 to 100; format: in vivo, Beta vulgaris
Method in brief: as §1

[13] = tested on: giant foxtail; test: as above; format: in vivo, Setaria faberii; conditions: for Plant response rating, Giant foxtail: 62 g/ha, 0 to 100 scale
Method in brief: as §1

[14] = tested on: bedstraw; test: Test B preemergence/postemergence greenhouse plant response rating 0 to 10; format: in vivo, Galium aparine; conditions: 0 to 10 scale
Method in brief: as §2

[15] = tested on: cotton; test: as above; format: in vivo, Gossypium hirsutum; conditions: 0 to 10 scale
Method in brief: as §2

[16] = tested on: barley; test: as above; format: in vivo, Hordeum vulgare; conditions: 0 to 10 scale
Method in brief: as §2

[17] = tested on: blackgrass; test: Test C preemergence/postemergence greenhouse plant response rating 0 to 100; format: in vivo, Alopecurus myosuroides; conditions: for Plant response rating, Blackgrass: 62 g/ha, 0 to 100 scale
Method in brief: as §1

[18] = tested on: wheat; test: as above; format: in vivo, Triticum aestivum
Method in brief: as §1

[19] = POSTEMERGENCE section, flood test, Rate 1 g/ha
[20] = Rate 16 g/ha, under POSTEMERGENCE head (flood test species)
[21] = flood test species listed under POSTEMERGENCE, 62 g/ha, 0 to 100 scale
[22] = POSTEMERGENCE, 62 g/ha, 0 to 100 scale

CC(C)Oc1cc(-c2nn3c(c2Br)CCCC3)c(F)cc1Cl [Compound 38]
Plant response rating Ryegrass ([1]; POSTEMERGENCE): 50 | Plant response rating (0 to 100), Ryegrass ([1]; POSTEMERGENCE, Rate 1 g/ha): 0 | Plant response rating (0 to 100), Ryegrass ([1]; POSTEMERGENCE, Rate 4 g/ha): 10 | Plant response rating Ryegrass ([1]; PREEMERGENCE): 0 | Plant response rating (0 to 100), Ryegrass ([1]; PREEMERGENCE, Rate 1 g/ha): 0 | Plant response rating (0 to 100), Ryegrass ([1]; PREEMERGENCE, Rate 4 g/ha): 0 | Plant response rating (0 to 100), Ryegrass ([1]; Rate 16 g/ha, POSTEMERGENCE): 30 | Plant response rating (0 to 100), Ryegrass ([1]; Rate 16 g/ha, PREEMERGENCE): 0 | Plant response rating Lambsquarters ([2]; 62 g/ha, 0 to 100 scale): 70 | Plant response rating (0 to 100), Lambsquarters ([2]; Rate 1 g/ha): 60 | Plant response rating (0 to 100), Lambsquarters ([2]; Rate 4 g/ha): 60 | Plant response rating (0 to 100), Lambsquarters ([2]; Rate 16 g/ha): 70 | Plant response rating, Rape ([3]; POSTEMERGENCE): 80 | Plant response rating (0 to 100), Rape ([3]; POSTEMERGENCE, Rate 1 g/ha): 20 | Plant response rating (0 to 100), Rape ([3]; POSTEMERGENCE, Rate 4 g/ha): 30 | Plant response rating, Rape ([3]; PREEMERGENCE): 30 | Plant response rating (0 to 100), Rape ([3]; PREEMERGENCE, Rate 1 g/ha): 0 | Plant response rating (0 to 100), Rape ([3]; PREEMERGENCE, Rate 4 g/ha): 10 | Plant response rating (0 to 100), Rape ([3]; Rate 16 g/ha, POSTEMERGENCE): 40 | Plant response rating (0 to 100), Rape ([3]; Rate 16 g/ha, PREEMERGENCE): 20 | Plant response rating, Blackgrass ([4]; POSTEMERGENCE, Rate 50 g/ha): 3 | Plant response rating, Blackgrass ([4]; POSTEMERGENCE, Rate 200 g/ha): 7 | Plant response rating, Blackgrass ([4]; PREEMERGENCE, Rate 50 g/ha): 1 | Plant response rating, Blackgrass ([4]; Rate 200 g/ha, PREEMERGENCE): 1 | Plant response rating, Wild buckwheat ([5]; POSTEMERGENCE, Rate 50 g/ha): 10 | Plant response rating, Wild buckwheat ([5]; PREEMERGENCE, Rate 50 g/ha): 8 | Plant response rating, Wild buckwheat ([5]; Rate 200 g/ha, POSTEMERGENCE): 10 | Plant response rating, Wild buckwheat ([5]; Rate 200 g/ha, PREEMERGENCE): 10 | Plant response rating, Corn ([6]; POSTEMERGENCE): 50 | Plant response rating (0 to 100), Corn ([6]; POSTEMERGENCE, Rate 1 g/ha): 10 | Plant response rating, Corn ([6]; PREEMERGENCE): 0 | Plant response rating (0 to 100), Corn ([6]; PREEMERGENCE, Rate 1 g/ha): 0 | Plant response rating (0 to 100), Corn ([6]; PREEMERGENCE, Rate 4 g/ha): 0 | Plant response rating (0 to 100), Corn ([6]; Rate 4 g/ha, POSTEMERGENCE): 20 | Plant response rating (0 to 100), Corn ([6]; Rate 16 g/ha, POSTEMERGENCE): 40 | Plant response rating (0 to 100), Corn ([6]; Rate 16 g/ha, PREEMERGENCE): 0 | Plant response rating, Cheatgrass ([7]; POSTEMERGENCE, Rate 50 g/ha): 4 | Plant response rating, Cheatgrass ([7]; POSTEMERGENCE, Rate 200 g/ha): 5 | Plant response rating, Cheatgrass ([7]; PREEMERGENCE, Rate 50 g/ha): 0 | Plant response rating, Cheatgrass ([7]; Rate 200 g/ha, PREEMERGENCE): 3 | Plant response rating (0 to 100), Barnyardgrass 2 [8, 19]: 10 | Plant response rating (0 to 100), Barnyardgrass 2 ([8]; Rate 4 g/ha, under POSTEMERGENCE head (flood test species)): 20 | Plant response rating (0 to 100), Barnyardgrass 2 [8, 20]: 75 | Plant response rating Barnyardgrass 2 [8, 21]: 100 | Plant response rating, Rice ([9]; POSTEMERGENCE, Rate 50 g/ha): 5 | Plant response rating, Rice ([9]; PREEMERGENCE, Rate 50 g/ha): 0 | Plant response rating, Rice ([9]; Rate 200 g/ha, POSTEMERGENCE): 6 | Plant response rating, Rice ([9]; Rate 200 g/ha, PREEMERGENCE): 2 | Plant response rating, Cocklebur ([10]; POSTEMERGENCE, Rate 50 g/ha): 8 | Plant response rating, Cocklebur ([10]; POSTEMERGENCE, Rate 200 g/ha): 10 | Plant response rating, Cocklebur ([10]; PREEMERGENCE, Rate 50 g/ha): 0 | Plant response rating, Cocklebur ([10]; Rate 200 g/ha, PREEMERGENCE): 5 | Plant response rating (0 to 100), Duck salad [11, 19]: 0 | Plant response rating (0 to 100), Duck salad ([11]; POSTEMERGENCE section, flood test, Rate 4 g/ha): 0 | Plant response rating (0 to 100), Duck salad [11, 20]: 20 | Plant response rating Duck salad [11, 21]: 50 | Plant response rating, Sugar beet [12, 22]: 100 | Plant response rating (0 to 100), Sugar beet ([12]; POSTEMERGENCE, Rate 1 g/ha): 20 | Plant response rating (0 to 100), Sugar beet ([12]; POSTEMERGENCE, Rate 4 g/ha): 70 | Plant response rating (0 to 100), Sugar beet ([12]; PREEMERGENCE, Rate 1 g/ha): 0 | Plant response rating (0 to 100), Sugar beet ([12]; PREEMERGENCE, Rate 4 g/ha): 0 | Plant response rating (0 to 100), Sugar beet ([12]; Rate 16 g/ha, POSTEMERGENCE): 100 | Plant response rating (0 to 100), Sugar beet ([12]; Rate 16 g/ha, PREEMERGENCE): 30 | Plant response rating, Giant foxtail ([13]; POSTEMERGENCE): 50 | Plant response rating (0 to 100), Giant foxtail ([13]; POSTEMERGENCE, Rate 1 g/ha): 20 | Plant response rating (0 to 100), Giant foxtail ([13]; POSTEMERGENCE, Rate 4 g/ha): 30 | Plant response rating, Giant foxtail ([13]; PREEMERGENCE): 0 | Plant response rating (0 to 100), Giant foxtail ([13]; PREEMERGENCE, Rate 1 g/ha): 0 | Plant response rating (0 to 100), Giant foxtail ([13]; PREEMERGENCE, Rate 4 g/ha): 0 | Plant response rating (0 to 100), Giant foxtail ([13]; Rate 16 g/ha, POSTEMERGENCE): 40 | Plant response rating (0 to 100), Giant foxtail ([13]; Rate 16 g/ha, PREEMERGENCE): 0 | Plant response rating, Bedstraw ([14]; POSTEMERGENCE, Rate 200 g/ha): 10 | Plant response rating, Bedstraw ([14]; PREEMERGENCE, Rate 50 g/ha): 0 | Plant response rating, Bedstraw ([14]; Rate 200 g/ha, PREEMERGENCE): 7 | Plant response rating, Cotton ([15]; POSTEMERGENCE, Rate 50 g/ha): 9 | Plant response rating, Cotton ([15]; POSTEMERGENCE, Rate 200 g/ha): 10 | Plant response rating, Cotton ([15]; PREEMERGENCE, Rate 50 g/ha): 0 | Plant response rating, Cotton ([15]; Rate 200 g/ha, PREEMERGENCE): 9 | Plant response rating, Barley ([16]; POSTEMERGENCE, Rate 50 g/ha): 4 | Plant response rating, Barley ([16]; POSTEMERGENCE, Rate 200 g/ha): 6 | Plant response rating, Barley ([16]; PREEMERGENCE, Rate 50 g/ha): 0 | Plant response rating, Barley ([16]; Rate 200 g/ha, PREEMERGENCE): 1 | Plant response rating, Blackgrass ([17]; POSTEMERGENCE): 40 | Plant response rating (0 to 100), Blackgrass ([17]; POSTEMERGENCE, Rate 1 g/ha): 10 | Plant response rating, Blackgrass ([17]; PREEMERGENCE): 30 | Plant response rating (0 to 100), Blackgrass ([17]; PREEMERGENCE, Rate 1 g/ha): 0 | Plant response rating (0 to 100), Blackgrass ([17]; PREEMERGENCE, Rate 4 g/ha): 0 | Plant response rating (0 to 100), Blackgrass ([17]; Rate 4 g/ha, POSTEMERGENCE): 10 | Plant response rating (0 to 100), Blackgrass ([17]; Rate 16 g/ha, POSTEMERGENCE): 20 | Plant response rating (0 to 100), Blackgrass ([17]; Rate 16 g/ha, PREEMERGENCE): 0 | Plant response rating, Wheat [18, 22]: 50 | Plant response rating (0 to 100), Wheat ([18]; POSTEMERGENCE, Rate 1 g/ha): 0 | Plant response rating (0 to 100), Wheat ([18]; POSTEMERGENCE, Rate 4 g/ha): 20 | Plant response rating (0 to 100), Wheat ([18]; PREEMERGENCE, Rate 1 g/ha): 0 | Plant response rating (0 to 100), Wheat ([18]; PREEMERGENCE, Rate 4 g/ha): 0 | Plant response rating (0 to 100), Wheat ([18]; Rate 16 g/ha, POSTEMERGENCE): 30 | Plant response rating (0 to 100), Wheat ([18]; Rate 16 g/ha, PREEMERGENCE): 0
